In data set [1] the target is T1, human recombinant MLK3 protein (Homo sapiens, UniProt Q16584).
T1 construct: purchased Eurofins
Briefly: MLK3 kinase activity assay (Eurofins, gamma-33P-ATP, filtermat scintillation counting). In kind it is biochemical. The conditions noted are these: human recombinant MLK3, 120 minutes at room temperature. The procedure: (§1) Compounds 1 to 119 synthesized in Example 1 according to the present disclosure were assayed for inhibitory activity against MLK3/LRRK2 enzymes and anticancer activity against HepG2/HS746T cancer cells, and the results are summarized in Table 1, below.
(§2) Inhibitory activity against MLK3 and LRRK2 enzymes was evaluated in Eurofins. In brief, human recombinant MLK3 protein was mixed with the compounds in a reaction buffer (8 mM MOPS (pH 7.0), 0.2 mM EDTA, 0.33 mg/mL myelin basic protein, 5 mM DTT) to which a mixture of 10 mM magnesium acetate and gamma-33P-ATP was then added before incubation at room temperature for 120 minutes. Afterward, the reaction was terminated with 0.5% phosphoric acid. Ten μL of the total mixture was spotted onto a P30 filtermat which was then washed four times for 4 minutes with 0.425% phosphoric acid and once in methanol prior to scintillation counting. Values for the activity of MLK3 were expressed as % of the control. For the activity of LRRK2, human recombinant LRRK2 protein was mixed with the compounds in a reaction buffer (50 mM HEPES (pH 8.0), 0.2 mM EDTA, 0.01% Brij-35, 1% (w/v) BSA, 5 mM DTT, 250 uM substrate peptide RLGRDKYKTLRQIRQ) and then reacted with a mixture of 10 mM magnesium acetate and gamma-33P-ATP at room temperature for 40 minutes. Afterward, the reaction was terminated with 0.5% phosphoric acid. Ten μL of the total mixture was spotted onto a P30 filtermat which was then washed four times for 4 minutes with 0.425% phosphoric acid and once in methanol prior to scintillation counting. Values for the activity of LRRK2 were expressed as % of the control.

Data set [2] concerns the target T2, human recombinant LRRK2 protein (Homo sapiens, UniProt Q5S007).
T2 construct: purchased Eurofins
In words: LRRK2 kinase activity assay (Eurofins, gamma-33P-ATP, filtermat scintillation counting). Conditions: human recombinant LRRK2, 40 minutes at room temperature. Format: biochemical. The procedure:
as §1, §2

In the next data set the test system is HepG2 cancer cells. In words: Anticancer activity, cell viability by CCK-8, HepG2. Format: cell-based. The conditions noted are these: HepG2, 10 μM, 72 hours. The method, then:
(§3) Compounds 1 to 119 synthesized in Example 1 according to the present disclosure were assayed for inhibitory activity against MLK3/LRRK2 enzymes and anticancer activity against HepG2/H[…] cancer cells, and the results are summarized in Table 1, below. Assay for anticancer activity was conducted as follows. HepG2 and H[…] cancer cells were purchased from the Korean Cell Line Bank and cultured according to the instruction provided thereby. One hundred μL of a culture of the cells were seeded at a density of 4,000 cells/well into 96-well plates. After 24 hours, the cells were treated with the compounds for 72 hours. Then, cell viability was assayed using CCK-8 and expressed as % of the control.

For another data set, the system named is HS746T cancer cells. In words: Anticancer activity, cell viability by CCK-8, HS746T. Format: cell-based. The conditions noted are these: 72 hours. The procedure:
as §3

Bounds are passed on as bounds.

T1 sequence (Q16584 whole entry): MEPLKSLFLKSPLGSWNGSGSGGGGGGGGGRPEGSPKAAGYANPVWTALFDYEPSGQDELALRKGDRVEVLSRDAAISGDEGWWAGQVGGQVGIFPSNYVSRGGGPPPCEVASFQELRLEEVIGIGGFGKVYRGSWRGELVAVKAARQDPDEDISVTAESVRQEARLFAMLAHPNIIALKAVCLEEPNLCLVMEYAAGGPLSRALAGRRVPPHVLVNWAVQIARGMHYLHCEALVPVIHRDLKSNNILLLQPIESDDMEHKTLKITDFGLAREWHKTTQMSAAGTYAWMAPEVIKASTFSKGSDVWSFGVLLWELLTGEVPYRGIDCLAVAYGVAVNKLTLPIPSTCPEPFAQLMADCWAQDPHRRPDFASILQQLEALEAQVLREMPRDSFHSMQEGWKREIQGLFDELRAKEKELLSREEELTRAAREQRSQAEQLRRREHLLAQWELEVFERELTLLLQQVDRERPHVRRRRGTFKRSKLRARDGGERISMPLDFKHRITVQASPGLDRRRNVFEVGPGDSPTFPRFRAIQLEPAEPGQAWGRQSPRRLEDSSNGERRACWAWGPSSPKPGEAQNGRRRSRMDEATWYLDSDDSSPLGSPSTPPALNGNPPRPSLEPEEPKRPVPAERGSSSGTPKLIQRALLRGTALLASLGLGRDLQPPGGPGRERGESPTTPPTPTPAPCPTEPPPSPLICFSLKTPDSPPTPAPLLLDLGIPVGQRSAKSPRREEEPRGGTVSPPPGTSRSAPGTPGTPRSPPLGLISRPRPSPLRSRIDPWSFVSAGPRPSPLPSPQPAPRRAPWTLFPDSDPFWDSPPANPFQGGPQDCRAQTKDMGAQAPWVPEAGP
T2 sequence (Q5S007 whole entry): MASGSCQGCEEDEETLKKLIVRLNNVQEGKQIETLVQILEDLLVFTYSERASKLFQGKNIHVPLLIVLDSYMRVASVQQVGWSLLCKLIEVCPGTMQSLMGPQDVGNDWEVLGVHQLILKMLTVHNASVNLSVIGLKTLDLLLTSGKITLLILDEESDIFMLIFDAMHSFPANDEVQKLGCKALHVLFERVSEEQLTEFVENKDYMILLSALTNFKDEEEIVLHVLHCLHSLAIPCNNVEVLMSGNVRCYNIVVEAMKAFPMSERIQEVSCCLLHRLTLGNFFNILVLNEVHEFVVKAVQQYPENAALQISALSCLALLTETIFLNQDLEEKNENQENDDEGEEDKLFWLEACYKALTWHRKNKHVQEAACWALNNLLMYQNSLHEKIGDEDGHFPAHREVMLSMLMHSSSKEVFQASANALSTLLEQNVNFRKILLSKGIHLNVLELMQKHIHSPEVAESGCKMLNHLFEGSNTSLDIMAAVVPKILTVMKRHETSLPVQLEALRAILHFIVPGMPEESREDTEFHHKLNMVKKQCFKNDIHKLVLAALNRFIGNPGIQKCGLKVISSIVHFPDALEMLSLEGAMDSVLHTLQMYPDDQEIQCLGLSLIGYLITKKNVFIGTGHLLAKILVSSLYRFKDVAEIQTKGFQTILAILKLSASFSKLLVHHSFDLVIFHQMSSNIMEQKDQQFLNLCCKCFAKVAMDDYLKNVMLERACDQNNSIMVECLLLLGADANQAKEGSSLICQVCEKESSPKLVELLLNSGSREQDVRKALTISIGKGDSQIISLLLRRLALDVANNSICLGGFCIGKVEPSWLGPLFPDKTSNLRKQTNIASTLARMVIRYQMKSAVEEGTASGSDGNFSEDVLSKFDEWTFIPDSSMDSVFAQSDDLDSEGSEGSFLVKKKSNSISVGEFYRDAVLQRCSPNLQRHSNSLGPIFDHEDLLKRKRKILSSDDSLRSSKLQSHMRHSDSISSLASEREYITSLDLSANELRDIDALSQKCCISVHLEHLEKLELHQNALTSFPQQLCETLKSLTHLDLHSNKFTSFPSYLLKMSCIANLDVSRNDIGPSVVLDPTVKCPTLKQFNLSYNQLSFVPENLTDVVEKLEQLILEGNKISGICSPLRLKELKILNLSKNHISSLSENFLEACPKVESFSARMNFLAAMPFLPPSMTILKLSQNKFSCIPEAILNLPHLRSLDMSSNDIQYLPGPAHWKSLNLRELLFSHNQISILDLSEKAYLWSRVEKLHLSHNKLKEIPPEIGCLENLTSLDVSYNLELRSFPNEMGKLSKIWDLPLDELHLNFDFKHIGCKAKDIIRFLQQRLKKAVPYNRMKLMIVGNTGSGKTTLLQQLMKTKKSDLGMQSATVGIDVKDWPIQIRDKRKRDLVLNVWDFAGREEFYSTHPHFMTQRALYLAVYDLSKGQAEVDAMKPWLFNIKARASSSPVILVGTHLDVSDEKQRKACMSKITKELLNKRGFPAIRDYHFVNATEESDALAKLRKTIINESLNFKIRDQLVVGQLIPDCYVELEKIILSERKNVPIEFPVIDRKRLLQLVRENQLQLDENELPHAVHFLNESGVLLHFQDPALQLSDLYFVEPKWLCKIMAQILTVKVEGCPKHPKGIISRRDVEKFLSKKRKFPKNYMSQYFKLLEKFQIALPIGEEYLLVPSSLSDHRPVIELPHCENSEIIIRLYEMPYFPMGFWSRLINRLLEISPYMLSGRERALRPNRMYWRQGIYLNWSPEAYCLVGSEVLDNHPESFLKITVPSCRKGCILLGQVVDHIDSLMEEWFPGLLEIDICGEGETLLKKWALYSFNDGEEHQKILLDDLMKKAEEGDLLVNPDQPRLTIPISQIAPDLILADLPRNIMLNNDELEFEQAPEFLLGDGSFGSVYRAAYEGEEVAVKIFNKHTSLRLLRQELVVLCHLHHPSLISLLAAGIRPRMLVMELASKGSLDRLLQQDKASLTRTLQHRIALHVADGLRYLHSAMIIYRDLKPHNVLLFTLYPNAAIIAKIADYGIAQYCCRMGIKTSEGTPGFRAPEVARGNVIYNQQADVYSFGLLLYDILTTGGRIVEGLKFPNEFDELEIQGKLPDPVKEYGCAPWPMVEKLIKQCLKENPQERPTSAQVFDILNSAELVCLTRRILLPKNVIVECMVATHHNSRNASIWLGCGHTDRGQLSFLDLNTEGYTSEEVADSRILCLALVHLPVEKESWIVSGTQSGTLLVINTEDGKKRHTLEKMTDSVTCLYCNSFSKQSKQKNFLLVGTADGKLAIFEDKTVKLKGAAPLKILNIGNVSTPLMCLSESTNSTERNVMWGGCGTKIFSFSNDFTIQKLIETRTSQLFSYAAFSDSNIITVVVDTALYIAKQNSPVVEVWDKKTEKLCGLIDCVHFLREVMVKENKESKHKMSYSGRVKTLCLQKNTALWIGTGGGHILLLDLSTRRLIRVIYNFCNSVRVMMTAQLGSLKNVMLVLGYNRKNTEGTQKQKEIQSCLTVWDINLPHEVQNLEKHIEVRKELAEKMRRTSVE

In the case of `CN(C)c1ncc(F)c(NC2CCN(S(C)(=O)=O)CC2)n1` [compound 37, 5-Fluoro-N^2,N^2-dimethyl-N^4-(1-(methylsulfonyl)piperidin-4-yl) pyrimidine-2,4-diamine], the IC50 in data set [1] and in data set [2] was greater than 1000 nM each time. Also, the “Cell viability (% of Con. 10 μM) HepG2” value with HepG2 cancer cells is given as 100 % of Con. In addition, in the data set with HS746T cancer cells, the “Cell viability (% of Con. 10 μM) HS746T” value was 90 % of Con.
For the compound `CP(C)(=O)c1ccccc1Nc1nc(Nc2ccc3[nH]nc(-c4cccc([N+](=O)[O-])c4)c3c2)ncc1Cl` [compound 97, (2-((5-Chloro-2-((3-(3-nitrophenyl)-1H-indazol-5-yl)amino)pyrimidin-4-yl)amino)phenyl)dimethylphosphine oxide], the IC50 in data set [1] and in data set [2] was 1 to 10 nM throughout. Besides, in the data set with HepG2 cancer cells, the “Cell viability (% of Con. 10 μM) HepG2” value is 21 % of Con. Also, the “Cell viability (% of Con. 10 μM) HS746T” value with HS746T cancer cells is 11 % of Con.
As for `CC1(C)CCC(C)(C)c2cc(Nc3ncc(Cl)c(Nc4ccccc4P(C)(C)=O)n3)ccc21` [compound 7, (2-((5-Chloro-2-((5,5,8,8-tetramethyl-5,6,7,8-tetrahydronaphthalen-2-yl)amino)pyrimidin-4-yl)amino)phenyl)dimethylphosphine oxide], the IC50 in data set [1] and in data set [2] was 100 to 1000 nM each time. Also, the “Cell viability (% of Con. 10 μM) HepG2” value in the data set with HepG2 cancer cells is 75 % of Con. Besides, the “Cell viability (% of Con. 10 μM) HS746T” value in the data set with HS746T cancer cells was 103 % of Con.
With `CP(C)(=O)c1ccccc1Nc1nc(Nc2ccc3[nH]ncc3c2)ncc1Cl` [compound 66, (2-((2-((1H-Indazol-5-yl)amino)-5-chloropyrimidin-4-yl)amino)phenyl)dimethylphosphine oxide], the IC50 in data set [1] and in data set [2] was 1 to 10 nM throughout. In the data set with HepG2 cancer cells, the “Cell viability (% of Con. 10 μM) HepG2” value is 31 % of Con. Also, the “Cell viability (% of Con. 10 μM) HS746T” value in the data set on HS746T cancer cells is given as 22 % of Con.
On to `CP(C)(=O)c1ccccc1Nc1nc(Nc2ccc3[nH]nc(Br)c3c2)ncc1Cl` [compound 67, (2-((2-((3-Bromo-1H-indazol-5-yl)amino)-5-chloropyrimidin-4-yl)amino)phenyl)dimethylphosphine oxide], for which the IC50 in data set [1] and in data set [2] was 1 to 10 nM throughout. For the same compound, the “Cell viability (% of Con. 10 μM) HepG2” value in the data set on HepG2 cancer cells is 33 % of Con. In the data set with HS746T cancer cells, the “Cell viability (% of Con. 10 μM) HS746T” value is recorded as 25 % of Con.
On to `CP(C)(=O)c1ccccc1Nc1nc(NC2CCCCC2)ncc1Cl` [compound 16, (2-((5-Chloro-2-(cyclohexylamino)pyrimidin-4-yl)amino)phenyl) dimethylphosphine oxide], for which the IC50 in data set [1] and in data set [2] was greater than 1000 nM each time. Also, in the data set on HepG2 cancer cells, the “Cell viability (% of Con. 10 μM) HepG2” value is reported as 82 % of Con. In addition, the “Cell viability (% of Con. 10 μM) HS746T” value in the data set with HS746T cancer cells is given as 64 % of Con.
On to `CC(C)C1NCCc2ccc(Nc3ncc(Cl)c(Nc4ccccc4P(C)(C)=O)n3)cc21` (stereo not drawn) [compound 55, (2-((5-Chloro-2-((1-isopropyl-1,2,3,4-tetrahydroisoquinolin-7-yl)amino)pyrimidin-4-yl)amino)phenyl)dimethylphosphine oxide], for which the half-maximal inhibitory concentration (IC50) in data set [1] and in data set [2] was 1 to 10 nM throughout. Further, the “Cell viability (% of Con. 10 μM) HepG2” value in the data set on HepG2 cancer cells is 19 % of Con. Further, in the data set with HS746T cancer cells, the “Cell viability (% of Con. 10 μM) HS746T” value is 2 % of Con.
Consider `CP(C)(=O)c1ccccc1Nc1ncc(Cl)c(Nc2ccccc2P(C)(C)=O)n1` [compound 30, (((5-Chloropyrimidin-2,4-diyl)bis(azanediyl))bis(2,1-phenylene)) bis(dimethylphosphineoxide)], for which the concentration for half-maximal inhibition (IC50) in data set [1] and in data set [2] was greater than 1000 nM throughout. The “Cell viability (% of Con. 10 μM) HepG2” value with HepG2 cancer cells was 102 % of Con. The “Cell viability (% of Con. 10 μM) HS746T” value in the data set on HS746T cancer cells is given as 85 % of Con.
On to `CS(=O)(=O)N1CCC(Nc2nc(Nc3ccnc4c(F)cccc34)ncc2F)CC1` [compound 38, 5-Fluoro-N^2-(8-fluoroquinolin-4-yl)-N^4-(1-(methylsulfonyl)piperidin-4-yl)pyrimidine-2,4-diamine], for which the figures for the half-maximal inhibitory concentration (IC50) in data set [1] and in data set [2] were greater than 1000 nM and 100 to 1000 nM, respectively. Moreover, the “Cell viability (% of Con. 10 μM) HepG2” value in the data set with HepG2 cancer cells is listed as 73 % of Con. For the same compound, in the data set with HS746T cancer cells, the “Cell viability (% of Con. 10 μM) HS746T” value is reported as 90 % of Con.
For `COc1cc2c(cc1Nc1ncc(Cl)c(Nc3ccccc3P(C)(C)=O)n1)CN(C(=O)C(F)(F)F)CC2` [compound 62, 1-(7-((5-chloro-4-((2-(dimethylphosphoryl)phenyl)amino)pyrimidin-2-yl)amino)-6-methoxy-3,4-dihydroisoquinolin-2(1H)-yl)-2,2,2-trifluoroethan-1-one], the IC50 in data set [1] and in data set [2] was 1 to 10 nM in each case. Moreover, the “Cell viability (% of Con. 10 μM) HepG2” value in the data set with HepG2 cancer cells is listed as 26 % of Con. The “Cell viability (% of Con. 10 μM) HS746T” value in the data set on HS746T cancer cells is reported as 13 % of Con.
For `COc1cc(Cl)cc(-c2n[nH]c3ccc(Nc4ncc(Cl)c(Nc5ccccc5P(C)(C)=O)n4)cc23)c1` [compound 113, (2-((5-Chloro-2-((3-(3-chloro-5-methoxyphenyl)-1H-indazol-5-yl)amino)pyrimidin-4-yl)amino)phenyl)dimethylphosphine oxide], the IC50 – broadly, the concentration that gives 50% inhibition – in data set [1] fell in the range of 1 to 10 nM; in data set [2], 10 to 100 nM. The “Cell viability (% of Con. 10 μM) HepG2” value with HepG2 cancer cells is given as 16 % of Con. Besides, the “Cell viability (% of Con. 10 μM) HS746T” value with HS746T cancer cells is listed as 26 % of Con.
As for `CP(C)(=O)c1ccccc1Nc1nc(Nc2ccc3[nH]nc(-c4ccc(CO)o4)c3c2)ncc1Cl` [compound 101, (2-((5-chloro-2-((3-(5-(hydroxymethyl)furan-2-yl)-1H-indazol-5-yl)amino)pyrimidin-4-yl)amino)phenyl)dimethylphosphine oxide], the IC50 in data set [1] lay in the range of 1 to 10 nM; in data set [2], 10 to 100 nM. Besides, the “Cell viability (% of Con. 10 μM) HepG2” value in the data set on HepG2 cancer cells is on record as 56 % of Con. In the data set with HS746T cancer cells, the “Cell viability (% of Con. 10 μM) HS746T” value was 13 % of Con.
On to `CP(C)(=O)c1ccccc1Nc1nc(Nc2cnc3ccccc3c2)ncc1Cl` [compound 19, (2-((5-Chloro-2-(quinolin-3-ylamino)pyrimidin-4-yl)amino)phenyl) dimethylphosphine oxide], for which the half-inhibitory concentration (IC50) in data set [1] and in data set [2] was 10 to 100 nM each time. For the same compound, the “Cell viability (% of Con. 10 μM) HepG2” value in the data set on HepG2 cancer cells was 34 % of Con. In the data set on HS746T cancer cells, the “Cell viability (% of Con. 10 μM) HS746T” value was 25 % of Con.
For `CP(C)(=O)c1ccccc1Nc1nc(N2CCc3c(N)cccc3C2)ncc1Cl` [compound 9, (2-((2-(5-Amino-3,4-dihydroisoquinolin-2(1H)-yl)-5-chloropyrimidin-4-yl)amino)phenyl)dimethylphosphine oxide], the IC50 in data set [1] and in data set [2] was greater than 1000 nM in each case. Besides, the “Cell viability (% of Con. 10 μM) HepG2” value in the data set on HepG2 cancer cells is listed as 110 % of Con. The “Cell viability (% of Con. 10 μM) HS746T” value in the data set with HS746T cancer cells is recorded as 104 % of Con.
Regarding `CP(C)(=O)c1ccccc1Nc1nc(Nc2ccc3[nH]nc(-c4ccc(S(C)(=O)=O)cc4)c3c2)ncc1Cl` [compound 114, (2-((5-Chloro-2-((3-(4-(methylsulfonyl)phenyl)-1H-indazol-5-yl)amino)pyrimidin-4-yl)amino)phenyl)dimethylphosphine oxide], the IC50 in data set [1] fell in the range of 1 to 10 nM; in data set [2], 10 to 100 nM. In addition, the “Cell viability (% of Con. 10 μM) HepG2” value with HepG2 cancer cells was 68 % of Con. Also, the “Cell viability (% of Con. 10 μM) HS746T” value with HS746T cancer cells is reported as 33 % of Con.
On to `CP(C)(=O)c1ccccc1Nc1nc(Nc2ccc3[nH]nc(-c4ccc(F)c(Cl)c4)c3c2)ncc1Cl` [compound 107, (2-((5-Chloro-2-((3-(3-chloro-4-fluorophenyl)-1H-indazol-5-yl)amino)pyrimidin-4-yl)amino)phenyl)dimethylphosphine oxide], for which the IC50 in data set [1] and in data set [2] was 1 to 10 nM each time. Moreover, the “Cell viability (% of Con. 10 μM) HepG2” value in the data set with HepG2 cancer cells was 63 % of Con. In the data set on HS746T cancer cells, the “Cell viability (% of Con. 10 μM) HS746T” value was 11 % of Con.
In the case of `Cc1nc2ccc(Nc3ncc(Cl)c(Nc4ccccc4P(C)(C)=O)n3)cc2s1` [compound 17, (2-((5-Chloro-2-((2-methylbenzo[d]thiazol-6-yl)amino)pyrimidin-4-yl)amino)phenyl)dimethylphosphine oxide], the IC50 in data set [1] and in data set [2] was 1 to 10 nM throughout. The “Cell viability (% of Con. 10 μM) HepG2” value in the data set on HepG2 cancer cells is 35 % of Con. In addition, in the data set on HS746T cancer cells, the “Cell viability (% of Con. 10 μM) HS746T” value is given as 17 % of Con.
`CP(C)(=O)c1ccccc1Nc1nc(Nc2ccc3c(c2)C(=O)NCC3)ncc1Cl` [compound 41, 7-((5-Chloro-4-((2-(dimethylphosphoryl)phenyl)amino)pyrimidin-2-yl)amino)-3,4-dihydroisoquinolin-1(2H)-one]: the results for the IC50 in data set [1] and in data set [2] were 1 to 10 nM and 10 to 100 nM, respectively. For the same compound, the “Cell viability (% of Con. 10 μM) HepG2” value in the data set on HepG2 cancer cells was 26 % of Con. Besides, the “Cell viability (% of Con. 10 μM) HS746T” value in the data set with HS746T cancer cells is on record as 33 % of Con.

Source of the values: patent publication US20240270698A2, “NOVEL PYRIMIDINE DERIVATIVE AND USE THEREOF” (KOREA RESEARCH INSTITUTE OF CHEMICAL TECHNOLOGY, priority 2019, published 2024).
